Measurements from patent US8609083B1, “Method for controlling fungal pathogen with bacterial metabolite” (The United States of America, as represented by the …, priority 2007, dated 2013).

Test system: F. effusum
Assay: Suppression of F. effusum sporulation on pecan terminal shoots
Assay type: in vivo, Fusicladosporium effusum
Conditions: 72 hours at 25° C.; for suppression of F. effusum sporulation, Abbott's formula relative to the acetone control: undiluted metabolites or fungicide products
Procedure: Dormant twigs with spore lesion constitute a primary source of scab infestation in pecan orchards. Scab disbursal via twig lesion sporulation occurs in early spring when temperatures are optimal. […] The shoots were selected for uniformity in diameter, cut into 5 cm segments, and placed into 1.5×10 cm test tubes.
Pecan shoots were sonicated for 30 minutes in 6 ml of 1% TWEEN 20 solution (polyoxyehtylene (20) sorbitan monolaurate). The number of spores released per lesion was counted via a hemocytometer. […]. A portion of the shoots were sonicated and counted prior to exposure to fungicidal treatments to verify that the shoots had not sporulated. The initial shoots lesions were designated as the baseline treatment.
Shoots were exposed to the following fungicidal treatments: undiluted metabolites derived from either P. luminescens (Hb) or X. bovienii (SN), and three chemical fungicide products used for control of F. effusum, i.e., dodine (Dodine 65W, 65% active ingredient, wettable powder, Platte Chemical Co. Greeley, Colo.), fenbuconazole (ENABLE 2F, 240 grams/liter active ingredient, flowable, Dow AgroSciences, Indianapolis Ind.), and triphenyltin hydroxide (SUPERTIN, 80% active ingredient, wettable powder, Griffin L. L. C., Valdosta, Ga.). The bacteria P. luminescens (Hb) was isolated from Heterorhabditis bacteriophora Poinar. The bacteria X. bovienii (SN) was isolated from Steinernema feltiae (Filipjev).
The shoots were also exposed to a water control and acetone control. Acetone was used as a solvent for the metabolites. The treatments were applied using an airbrush sprayer. The shoots were incubated at 25° C. for 72 hours, and exposed to sonification and quantification of spores. Ten replicate shoots for each treatment and the experiment was repeated once.

CCCCCCCCCCCCNC(=N)N [dodine]
suppression of F. effusum sporulation, Abbott's formula relative to the acetone control: 49.6%

N#CC(CCc1ccc(Cl)cc1)(Cn1cncn1)c1ccccc1 (stereo not drawn) [fenbuconazole]
suppression of F. effusum sporulation, Abbott's formula relative to the acetone control: 80.4%

[OH][Sn]([c]1ccccc1)([c]1ccccc1)[c]1ccccc1 [triphenyltin hydroxide]
sporulation of F. effusum on pecan shoots relative to the acetone or water control (FIG. 3): No effect was detected
